From publication PMC12527977, “Discovery of a novel tetrapeptide as glucose homeostasis modulator with bifunctionalities of targeting DPP‐IV and microbiota” (iMeta, 2025)
pIC50, pKd: −log10 of the molar value. Values joined by “and” are separate entries in the source; they are usually repeats but may differ in a detail not shown here. Equal entries are not always repeated. Structures can show the parent of a compound that is named as a salt. Where two headings read alike, the source gives them in different places. Where a SMILES comes first, the peptide text is derived from it.

What was measured:
DPP-IV [1] = molecular target: T1, DPP-IV (Homo sapiens, UniProt P27487); experiment: DPP-IV inhibitory activity of peptides (DPP-IV-Glo Protease Assay Kit); assay type: biochemical; design: purchased QiZheng Biotech (Shanghai, China) IBDPP0901; conditions: for DPP-IV inhibitory activity: DPP-IV-Glo Protease Assay Kit, control = 0, sheet S2F, in % (unit assumed); for pIC50: read-out: IC50
Target sequence in this assay (P27487 whole entry): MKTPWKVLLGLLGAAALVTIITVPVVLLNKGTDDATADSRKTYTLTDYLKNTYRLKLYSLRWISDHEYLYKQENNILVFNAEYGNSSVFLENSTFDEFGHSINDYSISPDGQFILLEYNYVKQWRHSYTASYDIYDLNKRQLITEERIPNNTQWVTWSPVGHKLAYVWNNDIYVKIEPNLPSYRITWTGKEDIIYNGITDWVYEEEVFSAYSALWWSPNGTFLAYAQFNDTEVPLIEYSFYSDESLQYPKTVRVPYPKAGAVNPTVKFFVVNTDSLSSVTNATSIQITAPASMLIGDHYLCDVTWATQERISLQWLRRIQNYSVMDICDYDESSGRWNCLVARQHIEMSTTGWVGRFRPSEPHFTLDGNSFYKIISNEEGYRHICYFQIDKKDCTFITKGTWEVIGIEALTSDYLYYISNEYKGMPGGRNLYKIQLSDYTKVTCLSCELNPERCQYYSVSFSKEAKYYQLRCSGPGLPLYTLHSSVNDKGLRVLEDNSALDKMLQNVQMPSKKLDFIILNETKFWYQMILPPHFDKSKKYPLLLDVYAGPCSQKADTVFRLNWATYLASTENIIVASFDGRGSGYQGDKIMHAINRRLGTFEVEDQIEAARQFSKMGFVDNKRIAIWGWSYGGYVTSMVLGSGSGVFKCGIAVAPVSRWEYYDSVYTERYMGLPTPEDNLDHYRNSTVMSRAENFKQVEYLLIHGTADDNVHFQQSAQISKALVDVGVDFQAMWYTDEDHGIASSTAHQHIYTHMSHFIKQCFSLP

[2] = system: porcine pepsase and trypsase; experiment: Simulated digestive stability of peptides (pepsase then trypsase); assay type: in vitro ADME; conditions: in words; 5.0 mg/mL peptide, pepsase 5000 U/mL pH 3.0 37 °C 2 h, then trypsase 100 U/mL pH 7.0 37 °C 2 h, LC-MS
Experimental: (§1) The in vitro digestibility of the peptides was determined according to the method described by Ohanenye et al. with some modifications. Briefly, 5.0 mg/mL peptides were mixed with 5000 U/mL porcine pepsase (pH 3.0). The mixture was incubated with continuous shaking in a water bath at 37 ℃ for 2 h. Then, the mixture was adjusted to pH 7.0, and a final concentration of 100 U/mL trypsase was added, followed by continuous shaking at 37 ℃ for another 2 h. After digestion, the enzyme was inactivated, and the mixture was incubated in a water bath (100 ℃) for 20 min. Subsequently, the mixture was centrifuged at 6000 rpm for 20 min, after which the supernatants were collected for further analysis. The concentrations of peptides in the digestions and TPH were determined via AB SCIEX QTrap 6600+ (AB Sciex, Framingham, Massachusetts).

[3] = as above; assay type: in vitro ADME, porcine; conditions: pig, relative to basal 100, sheet S2H; for remaining at 4 h, 5 mg/mL: pH 7, simulated digestion, after pepsase then trypsase, read-out: Peptide remaining, Trypsase; for remaining at 2 h, 5 mg/mL: porcine pepsase (simulated gastric digestion), pH 3, simulated digestion, after porcine pepsase, read-out: Peptide remaining, Pepsase
Experimental: as §1

HFD-fed C57BL/6J mice [4] = experiment: HFD-fed mice, TPH/sitagliptin/HSP 8 weeks: plasma NEFA, TG, TC, HDL-c, LDL-c; assay type: in vivo, mouse; conditions: individual animals, n = 6, sheet S1U, listed as Sit
Experimental: (§2) To evaluate the hypoglycaemic activity of TPH, all mice were fed a high-fat diet (HFD, Research Diets, cat# D12492).
The levels of plasma total cholesterol (TC), triacylglycerol (TG), high-density lipoprotein cholesterol (HDL-c), low-density lipoprotein cholesterol (LDL-c), nonesterified fatty acid (NEFA), tumour necrosis factor α (TNF α), and interleukin-1β (IL-1β) were determined by commercial kit (Nanjing Jiancheng Bioengineering Institute, Nanjing, China).

HFD-fed C57BL/6J mice [5] = experiment: HFD-fed mice, TPH/sitagliptin/HSP 8 weeks: FBG, OGTT, fasting insulin, HOMA-IR; assay type: in vivo, mouse; design: unit not given here; conditions: 8 weeks p.o. (Sit 12.5, TPH 80, HSP 320 mg/kg)
Experimental: as §2
Oral glucose tolerance tests (OGTTs) were conducted following a 6-hour fasting period in mice. Blood glucose levels were assessed using a glucometer on tail vein blood samples at 0, 15, 30, 60, and 90 min after oral glucose administration with a dosage of 1.5 g/kg body weight. For insulin tolerance tests (ITTs), mice were intraperitoneal injected with insulin (0.8 U/kg body weight) after 6 h of fasting. […] The levels of active GLP-1, total GLP-1, and insulin were measured using the corresponding kits and normalized to the protein concentration (via a BCA protein assay).

[6] = system: gut microbiota, A. muciniphila; experiment: HFD-fed mice, TPH or sitagliptin 8 weeks: gut microbiota (16S rRNA); assay type: in vivo, mouse; conditions: in words, 8 weeks p.o.
Excerpt: To evaluate the hypoglycaemic activity of TPH, all mice were fed a high-fat diet (HFD, Research Diets, cat# D12492). […] Raw sequencing data were processed with QIIME2. In brief, the forward and reverse reads each were truncated at 200 bases. Taxonomy was assigned using the Greengenes reference (version 13.8) database. Analyses of alpha diversity (one-way ANOVA followed by Tukey’s post hoc test), beta diversity (weighted UniFrac distance followed by ANOSIM test), and bacterial taxonomic distributions were performed using MicrobiomeAnalyst.

DPP-IV [7] = molecular target: T1, DPP-IV; experiment: Surface plasmon resonance (Biacore 8K, CM5 chip, 25 °C); assay type: binding; design: purchased QiZheng Biotech (Shanghai, China) IBDPP0901; conditions: SPR, Table S3; read-out: KD values
A. muciniphila [8] = experiment: Effect of different drugs (50 μM) on the growth of A. muciniphila; assay type: cell-based, Akkermansia muciniphila; conditions: in words; drugs at 50 μM
A. muciniphila [9] = experiment: HFD-fed mice, VAMP and/or benzydamine 4 weeks: A. muciniphila abundance in faeces (qPCR); assay type: in vivo, mouse; conditions: in words, 50 mg/kg three times per week for 4 weeks

Row | Structure (SMILES) | DPP-IV inhibitory activity (DPP-IV [1]; replicate 1) | DPP-IV inhibitory activity (DPP-IV [1]; replicate 2) | DPP-IV inhibitory activity (DPP-IV [1]; replicate 3) | pIC50 (DPP-IV [1]; Table S3) | Resistance to simulated gastric pepsase and trypsase digestion [2] | remaining at 4 h, 5 mg/mL ([3]; replicate 1) [%] | remaining at 4 h, 5 mg/mL ([3]; replicate 2) [%] | remaining at 4 h, 5 mg/mL ([3]; replicate 3) [%] | remaining at 2 h, 5 mg/mL ([3]; replicate 1) [%] | remaining at 2 h, 5 mg/mL ([3]; replicate 2) [%] | remaining at 2 h, 5 mg/mL ([3]; replicate 3) [%] | pKd (DPP-IV [7]) | other results
1 | NC(=O)CC[C@H](NC(=O)[C@@H]1CCCN1C(=O)[C@@H](N)Cc1ccccc1)C(=O)N[C@@H](CO)C(=O)O [FPQS] (H-FPQS-OH) | 35.1258 | 29.3845 | 34.8747 | 3.46 | readily resistant | 85.1 | 83.4 | 87.9 | 94.6 | 92.4 | 92.7 |  | pIC50 (DPP-IV [1]; source data of heatmap Fig 1J): 4.10
2 | N[C@@H](CC(=O)N1CCn2c(nnc2C(F)(F)F)C1)Cc1cc(F)c(F)cc1F [Sitagliptin] |  |  |  |  |  |  |  |  |  |  |  |  | Plasma HDL-c (HFD-fed C57BL/6J mice [4]): 2.289 and 2.058 and 2.182 and 2.361 and 2.149; AUC of the OGTT (HFD-fed C57BL/6J mice [5]; mouse 1 of group): 27513; Levels of fasting insulin (HFD-fed C57BL/6J mice [5]; mouse 1 of group): 31.21; AUC of the OGTT (HFD-fed C57BL/6J mice [5]; mouse 2 of group): 22668; Levels of fasting insulin (HFD-fed C57BL/6J mice [5]; mouse 2 of group): 34.42; AUC of the OGTT (HFD-fed C57BL/6J mice [5]; mouse 3 of group): 23854.5; Levels of fasting insulin (HFD-fed C57BL/6J mice [5]; mouse 3 of group): 37.914; AUC of the OGTT (HFD-fed C57BL/6J mice [5]; mouse 4 of group): 21897; Levels of fasting insulin (HFD-fed C57BL/6J mice [5]; mouse 4 of group): 32.691; AUC of the OGTT (HFD-fed C57BL/6J mice [5]; mouse 5 of group): 22426.5; Levels of fasting insulin (HFD-fed C57BL/6J mice [5]; mouse 5 of group): 36.21; AUC of the OGTT (HFD-fed C57BL/6J mice [5]; mouse 6 of group): 19386; Levels of fasting insulin (HFD-fed C57BL/6J mice [5]; mouse 6 of group): 32.691; Abundance of A. muciniphila in the intestine [6]: no effect
3 | CC(C)C[C@H](NC(=O)[C@H](CC(N)=O)NC(=O)[C@@H](N)Cc1ccc(O)cc1)C(=O)N1CCC[C@H]1C(=O)O [YNLP] (H-YNLP-OH) | 22.415 | 17.2115 | 22.0674 | 3.29 | readily resistant | 98.7 | 99 | 100 | 97.5 | 99.8 | 100 | 4.00 | 
4 | C[C@H](NC(=O)[C@H](Cc1ccc(O)cc1)NC(=O)[C@H](CO)NC(=O)[C@@H](N)Cc1ccc(O)cc1)C(=O)O [YSYA] (H-YSYA-OH) | 27.0679 | 29.9267 | 30.8304 | 3.39 |  | 3.01 | 3.24 | 4.18 | 17.8 | 17.7 | 15.2 | 5.26 | 
5 | CN(C)CCCOc1nn(Cc2ccccc2)c2ccccc12 [benzydamine, benzydamine hydrochloride] |  |  |  |  |  |  |  |  |  |  |  |  | Growth of A. muciniphila (A. muciniphila [8]): specifically inhibit the growth of A. muciniphila; Abundance of A. muciniphila in faeces (A. muciniphila [9]): reduced the abundance of A. muciniphila to an extremely low level
